We go through one compound from patent publication US20250108051A1, “THERAPEUTIC AGENT FOR CANCER” (TOHOKU UNIVERSITY, priority 2022, published 2025).

The subject of data set [1] is RKO (BRAF V600E-mutated colorectal cancer cell line). Put plainly: MTT assay, encorafenib + binimetinib with retinoid. It is filed as cell-based. The note with it: ATRA 0, 1.0 or 10 μM; encorafenib and binimetinib 0 to 10 μM. The method, then:
(§1) RKO cells were seeded on a 96-well plate with the number of cells of 1.5×10^3 cells/well, CO115 cells were seeded on a 96-well plate with the number of cells of 2.5×10^3 cells/well, and HT29 cells and WiDR cells were respectively seeded on 96-well plates with the number of cells of 6×10^3 cells/well. After incubation for about 24 hours until the cell density reached 40% to 60%, the drug was administered. After incubation at 37° C. for 72 hours, the MTT assay was performed using Cell Counting Kit-8 (Dojindo Laboratories, Kumamoto, Japan). To each well was added 10 μl of Cell Counting Kit-8 solution, the plates were placed in a culture vessel at 5% CO2 and 37° C. for 120 minutes to perform a color reaction, and then the absorbance at 450 nm was measured and evaluated with a microplate reader SpectraMax M2e (Molecular Devices, Sunnyvale, CA, USA). Cells administered with 0.1% DMSO were used as a control. The above was performed three or more times as independent experiments.
(§2) In various kinds of colorectal cancer cell lines, the inhibition effect of a BRAF inhibitor (encorafenib) and an MEK inhibitor (binimetinib) for the viability of cells and the enhancement by ATRA were examined. […] The horizontal axis indicates component concentrations of encorafenib and binimetinib in a range of 0 μM to 10 μM, and the vertical axis indicates the cell viability when 0 μM, 1.0 μM, or 10 μM (each bar graph) of ATRA was administered. As shown in the drawing, encorafenib and binimetinib were used in an equal molar concentration.
(§3) As the compounds for acting and on a retinoid receptor, retinol, tamibarotene, bexarotene among the retinoids were used. As the cell lines, the above-described cell lines including RKO, HT29, and CO115 were used. As the BRAF inhibitor and the MEK inhibitor to be used in combination, a component (EB) obtained by mixing encorafenib and binimetinib in equal amounts was used as in Test Example 2.
(§4) As the compounds for acting on a retinoid receptor, retinol, tamibarotene, and bexarotene among the retinoids were used. As the cell lines, the colorectal cancer cell lines including RKO, HT29, CO115, WiDR, COLO205, and LIM2405 described above were used. As the BRAF inhibitor and the MEK inhibitor to be used in combination, a component (EB) obtained by mixing encorafenib and binimetinib in equal amounts was used as in Test Example 2.

For data set [2], the system named is CO115 (BRAF V600E-mutated colorectal cancer cell line). Description: MTT assay, encorafenib + binimetinib with retinoid. It counts as cell-based. Conditions: ATRA 0, 1.0 or 10 μM; encorafenib and binimetinib 0 to 10 μM. As to the method:
as §1, §2, §3, §4

Data set [3] has as its system HT29 (BRAF V600E-mutated colorectal cancer cell line). Description: MTT assay, encorafenib + binimetinib with retinoid. It counts as cell-based. The note with it: ATRA 0, 1.0 or 10 μM; encorafenib and binimetinib 0 to 10 μM. The method, then: as §1, §2, §3, §4
(Formazan colour is commonly taken as a measure of viable cells.)

Data set [4] deals with RKO cells. Description: Screening of SCADS Inhibitor Kit with dabrafenib + trametinib, cell viability by MTT assay. It counts as cell-based. The method, then: As the SCADS Inhibitor Kit, one provided by the Molecular Profiling Committee of the Grants-in-Aid for Scientific Research “Advanced Animal Model Support (AdAMS)” in the innovation field of the Ministry of Education, Culture, Sports, Science and Technology was used.
The RKO cells were seeded on a 96-well plate with the number of cells of 2.7×10^3 cells/well, and 24 hours later, SCADS Inhibitor Kit 4 ver 2.3 was administered at 500 nM. Two plates treated in the same manner were prepared, and 50 nM of the BRAF inhibitor Dabrafenib and 5 nM of the MEK inhibitor Trametinib were administered to one of the plates. After incubation at 37° C. for 72 hours after the drug administration, cell viability was measured by an MTT assay (described below). The cell viability was evaluated for RKO cells administered with only DMSO.
The MTT (Thiazolyl blue tetrazolium bromide) assay was performed as follows.
RKO cells were seeded on a 96-well plate with the number of cells of 1.5×10^3 cells/well, CO115 cells were seeded on a 96-well plate with the number of cells of 2.5×10^3 cells/well, and HT29 cells and WiDR cells were respectively seeded on 96-well plates with the number of cells of 6×10^3 cells/well. After incubation for about 24 hours until the cell density reached 40% to 60%, the drug was administered. […]
The synergistic effect was evaluated using Combination Index. […]

Data set [5] deals with WiDR (BRAF V600E-mutated colorectal cancer cell line). Put plainly: MTT assay, encorafenib + binimetinib with retinoid. It is filed as cell-based. The note with it: ATRA 0, 1.0 or 10 μM; encorafenib and binimetinib 0 to 10 μM. As to the method:
as §1, §2, §4

Data set [6] deals with HT29 cell line. Description: Annexin V-PI apoptosis assay. The note with it: TRE 10 μM, ENC 10 nM, BIN 10 nM, 72 hours, TRE vs DMSO. It counts as cell-based. As to the method:
Thereafter, the cells were collected, washed with PBS, and stained with Annexin V and PI using Annexin V-FITC Apoptosis Detection Kit (Nakalai Tesque). Apoptotic cells were detected using CytoFLEX LX. A proportion of cells positive for Annexin V was calculated as a proportion of apoptotic cells. The above was performed three times as an independent experiment. Student's test was used for a significant difference test.

In data set [7] the test system is HT29 cell line. Put plainly: Subcutaneous transplanted tumor mouse model (Test Example 13). It is filed as in vivo.
Description: The in vivo antitumor effect and toxicity generated by combined use of a compound acting on a retinoid receptor, a BRAF inhibitor, an MEK inhibitor, and an anti-EGFR antibody, or a BRAF inhibitor and an anti-EGFR antibody were evaluated by a mouse model subcutaneous transplanted with a HT29 cell line.
Female nude mice (BALB/c-nu) were purchased from The Jackson Laboratory Japan, and raised in a specific pathogen-free environment. The cultured HT29 cell line was collected with trypsin, and a culture medium and a Corning Matrigel basement membrane matrix (Corning) were mixed at a volume ratio of 1:1 so as to reach 1×10^7 cells/mL, followed by suspension. Into a left abdominal region of each mouse was subcutaneously implanted 0.1 mL of cell suspension. When tumor volumes reached 150 mm^3 to 200 mm^3, mice were randomly divided into a vehicle group, a TRE single group, an ENC+CET group, a three-drug combination (TRE+ENC+CET) group including TRE and ENC+CET, an ENC+BIN+CET group, or a four-drug combination (TRE+ENC+BIN+CET) group including TRE and ENC+BIN+CET. TRE, ENC, and BIN were dissolved in Corn oil (FUJIFILM Wako Pure Chemical Industries, Ltd.), and further subjected to ultrasonic treatment using Bioruptor UCW-310 (Sonicbio. Co. Ltd.) to prepare a drug solution. ENC, BIN, and TRE were orally administrated by force once a day for 28 days at doses of 5 mg/kg, 1.75 mg/kg, and 10 mg/kg, respectively. […] The tumor size and the body weight were measured every three days from the start of the therapy. […]
Subsequently, in order to evaluate the influence of the combined use of TRE and ENC+BIN+CET or ENC+CET on in vivo tumor proliferation, a Ki-67 labeling index was calculated using a resected tumor at the end of the therapy.
Specifically, tumors were extracted from 4 to 6 mice randomly selected from each therapy group. […] Five fields of view for a central part of the tumor without tumor necrosis were selected, and 500 or more cells in total were counted in each group. The Ki-67 labeling index was calculated as the number of Ki-67 positive cells/the total number of cells.
The subject of data set [8] is cleaved PARP in RKO cell line. Description: Western blot of cleaved PARP under RARα or RXRα knockdown. It is filed as cell-based. As to the method: To the collected cells were added Radioimmunoprecipitation assay buffer (composition: 50 mM Tris-HCL, pH 8.0, 150 mM Sodium Chloride, 0.5 w/v % Sodium Deoxycholate, 0.1 w/v % Sodium Dodecyl Sulfate, 1.0 w/v % NP-40 substitute) supplemented with Halt Protease Inhibitor Cocktail (Thermo Fisher Scientific Inc.), followed by dissolving the cells, and a protein was extracted. The extracted protein was quantified by a bicinchoninic acid method. A protein sample in an amount of 5 μg was separated by polyacrylamide electrophoresis, and the separated protein sample was transferred to Polyvinylidene difluoride membrane (PVDF membrane, Merck Millipore Ltd.), followed by blocking with Odyssey Blocking Buffer (Licor Inc.) for 1 hour at room temperature. Thereafter, the PVDF membrane after transfer was immersed in a primary antibody solution, followed by culturing at room temperature for 2 hours or at 4° C. overnight. After the primary antibody reaction, the PVDF membrane was washed with Tris Buffered Saline with Tween 20 (TBS-T) for 5 minutes at room temperature for three times and immersed in a secondary antibody, followed by incubating at room temperature for 1 hour. As the secondary antibody, Goat anti-Rabbit IgG (H+L) Highly Cross-Adsorbed Secondary Antibody Alexa Fluor680 (Thermo Fisher Scientific Inc.) and Goat anti-Mouse IgG (H+L) Highly Cross-Adsorbed Secondary Antibody Alexa Fluor680 (Thermo Fisher Scientific Inc.) were used at a dilution ratio of 1:1000. Thereafter, washing with TBS-T for 5 minutes was performed three times, and a measurement of signals was performed using an Odyssey Infrared Imaging System (Licor Inc.). […] The above was performed three or more times as independent experiments. Student's test was used for a significant difference test.
In general terms: In western blotting, separated proteins are transferred to a membrane and probed.

Broadly, the viability is a read-out of living cells in per cent, often relative to untreated cells.

For `CC1=C(/C=C/C(C)=C/C=C/C(C)=C/C(=O)O)C(C)(C)CCC1` [ATRA, all-trans retinoic acid], the “cell viability with encorafenib and binimetinib as a function of ATRA concentration” value in data set [1] was “the higher the concentration of ATRA is, the lower the cell viability is”; in data set [2], “the higher the concentration of ATRA is, the lower the cell viability is”; in data set [3], “the higher the concentration of ATRA is, the lower the cell viability is”; in data set [5] it was “the higher the concentration of ATRA is, the lower the cell viability is”. Further, the proliferation inhibition entry in data set [4] (ATRA alone) is “less than 20%”. Also, the viability at 0.5 µM in data set [4] (Homo sapiens, RKO, 72 hours, kit compound (ATRA) 0.5 μM, DAB 50 nM, TRA 5 nM, relative to DMSO) is 101%. Further, the “apoptotic cell proportion (Annexin V positive)” value in data set [6] was “no significant change”. Further, in data set [7] (28 days after the therapy), the “mouse body weights depending on the presence or absence of TRE” value is recorded as “no significant difference”. The compound also returned a tumor volume in data set [7] (28 days from the start of the therapy, ENC 5 mg/kg, BIN 1.75 mg/kg, TRE 10 mg/kg oral once a day, CET 20 mg/kg i.p. twice a week) of 1156 mm^3. Besides, the Ki-67 labeling index entry in data set [7] (resected tumor at the end of the therapy, TRE vs vehicle, combinations vs same group without TRE) is recorded as “No significant difference”. Also, the “enhancement by TRE of expression level of cleaved PARP caused by ENC+BIN” value is recorded as “about 8 times” in data set [8] (RARα inhibited), “about 1.5 times” in data set [8] (RXRα inhibited) and “about 13 times” in data set [8] (si-NC). Besides, the entries for the “enhancement by TRE of expression level of cleaved PARP caused by ENC+BIN+CET” value in data set [8] (RARα inhibited), in data set [8] (RXRα inhibited) and in data set [8] (si-NC) were “about 3 times”, “about 2 times” and “about 11 times”, respectively.
